The text below walks through data of publication PMC7368294 (Proceedings of the National Academy of Sciences of the …, 2020).

For orientation: EC50 means the concentration that produces a half-maximal response. A high value points to weaker potency.

For assay [1], the target named is Btα1/Btα2/Btα8/Btβ1 nAChR (Bombus terrestris, UniProt A0A9B0BGM1+A0A9B0F4H3+A0A9B2JDZ7+A0A9B2JMX7). Put plainly: two-electrode voltage clamp of Xenopus oocytes, agonist concentration-response. In kind it is cell-based. For orientation: Two-electrode voltage clamp holds a large cell at a set potential and records current.
Chain of Btα1/Btα2/Btα8/Btβ1 nAChR (A0A9B2JMX7 18-544, one chain of several): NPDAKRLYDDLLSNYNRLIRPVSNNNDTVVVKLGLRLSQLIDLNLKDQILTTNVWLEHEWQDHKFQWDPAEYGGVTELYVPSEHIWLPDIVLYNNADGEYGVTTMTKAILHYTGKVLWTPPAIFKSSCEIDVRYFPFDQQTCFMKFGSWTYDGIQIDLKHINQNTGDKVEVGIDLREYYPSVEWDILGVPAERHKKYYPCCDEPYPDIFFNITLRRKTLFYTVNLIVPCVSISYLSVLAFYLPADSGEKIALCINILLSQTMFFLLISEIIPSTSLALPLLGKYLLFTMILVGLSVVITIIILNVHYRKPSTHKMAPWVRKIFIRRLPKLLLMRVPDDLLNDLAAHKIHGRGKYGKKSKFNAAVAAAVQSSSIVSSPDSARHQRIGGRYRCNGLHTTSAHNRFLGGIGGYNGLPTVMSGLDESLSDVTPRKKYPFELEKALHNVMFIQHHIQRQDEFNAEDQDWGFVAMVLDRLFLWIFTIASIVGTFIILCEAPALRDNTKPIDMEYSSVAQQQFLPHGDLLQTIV
Assay [2] deals with T1, Btα1/Btα8/Btβ1 nAChR (Bombus terrestris, UniProt A0A9B0BGM1+A0A9B0F4H3+A0A9B2JDZ7).
T1 sequence (A0A9B0F4H3 44-615): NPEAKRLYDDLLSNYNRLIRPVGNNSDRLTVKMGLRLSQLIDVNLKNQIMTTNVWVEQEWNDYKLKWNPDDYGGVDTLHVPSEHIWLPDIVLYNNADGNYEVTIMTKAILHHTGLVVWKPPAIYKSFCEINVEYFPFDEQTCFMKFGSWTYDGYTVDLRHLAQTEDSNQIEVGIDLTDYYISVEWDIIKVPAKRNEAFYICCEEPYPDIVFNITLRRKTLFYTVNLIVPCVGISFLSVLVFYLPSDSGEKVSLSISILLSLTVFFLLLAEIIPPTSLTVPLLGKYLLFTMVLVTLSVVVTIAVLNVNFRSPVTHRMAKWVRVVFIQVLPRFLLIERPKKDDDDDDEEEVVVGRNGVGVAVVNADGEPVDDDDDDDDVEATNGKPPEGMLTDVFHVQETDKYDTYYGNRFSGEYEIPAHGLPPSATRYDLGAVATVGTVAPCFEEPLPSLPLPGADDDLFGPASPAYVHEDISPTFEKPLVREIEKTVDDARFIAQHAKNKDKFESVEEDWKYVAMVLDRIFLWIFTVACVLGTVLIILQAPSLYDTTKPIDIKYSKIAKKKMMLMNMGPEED
T1 sequence (A0A9B2JDZ7 22-535): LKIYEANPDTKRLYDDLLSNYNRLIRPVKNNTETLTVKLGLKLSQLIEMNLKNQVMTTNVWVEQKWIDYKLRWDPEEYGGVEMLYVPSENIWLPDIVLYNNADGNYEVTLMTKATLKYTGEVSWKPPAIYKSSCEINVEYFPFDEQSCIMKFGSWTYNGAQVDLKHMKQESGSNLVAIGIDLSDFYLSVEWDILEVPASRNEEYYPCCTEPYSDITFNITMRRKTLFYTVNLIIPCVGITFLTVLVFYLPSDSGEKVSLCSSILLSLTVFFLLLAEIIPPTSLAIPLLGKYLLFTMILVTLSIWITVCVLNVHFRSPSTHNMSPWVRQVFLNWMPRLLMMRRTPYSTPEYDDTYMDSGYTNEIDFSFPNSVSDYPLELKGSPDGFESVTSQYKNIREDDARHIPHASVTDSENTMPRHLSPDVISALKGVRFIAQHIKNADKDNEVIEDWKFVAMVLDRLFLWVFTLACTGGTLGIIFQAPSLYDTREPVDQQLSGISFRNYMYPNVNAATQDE
T1 sequence (A0A9B0BGM1 19-519): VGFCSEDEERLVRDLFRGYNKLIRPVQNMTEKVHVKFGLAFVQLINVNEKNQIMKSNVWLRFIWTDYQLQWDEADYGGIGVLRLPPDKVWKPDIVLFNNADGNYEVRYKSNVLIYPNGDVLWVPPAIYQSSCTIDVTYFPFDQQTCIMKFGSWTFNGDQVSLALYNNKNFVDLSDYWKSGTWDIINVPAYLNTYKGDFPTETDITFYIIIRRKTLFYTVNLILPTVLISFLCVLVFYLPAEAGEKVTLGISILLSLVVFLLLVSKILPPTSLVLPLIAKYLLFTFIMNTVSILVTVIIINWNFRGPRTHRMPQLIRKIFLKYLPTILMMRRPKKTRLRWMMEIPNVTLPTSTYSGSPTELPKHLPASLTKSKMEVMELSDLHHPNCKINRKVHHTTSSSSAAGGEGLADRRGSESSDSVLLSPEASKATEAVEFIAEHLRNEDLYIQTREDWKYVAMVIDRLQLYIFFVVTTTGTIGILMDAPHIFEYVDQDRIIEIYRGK
The assay is described as above. In kind it is cell-based.

Take `CN/C(=N\[N+](=O)[O-])NCc1cnc(Cl)s1` [clothianidin]: the EC50 is 0.0389 µM in assay [1] and 0.0135 µM in assay [2].

As to `O=[N+]([O-])NC1=NCCN1Cc1ccc(Cl)nc1` [imidacloprid], the EC50 in assay [1] is 0.0398 µM; in assay [2], 0.0251 µM.

Consider `N#C/N=C1\SCCN1Cc1ccc(Cl)nc1` [thiacloprid], for which the EC50 in assay [1] was 0.0724 µM; in assay [2] it was 0.0513 µM.
